Laboratory results taken from a melting point compilation (Tetko et al.; mined from patent text by program, amines drawn as free bases though some values may be those of a salt).

melting point [°C]	Structure (SMILES)
> 300	O=C(Nc1ccccc1C(F)(F)F)OCc1nccn1-c1cc2cc(C(=O)O)c(=O)[nH]c2cc1Cl
166	CNC(=O)n1cc(F)cnc1=O
90 to 93	CCCc1c(OCc2ccccc2C(=O)OC)ccc(C(C)=O)c1O
98 to 99	Cn1c(-c2c(F)cccc2F)nn(-c2ccccc2C(F)(F)F)c1=O
218 to 220	COC(=O)c1cccc2[nH]nc(S(=O)(=O)NC(C)(C)C)c12
129 to 131	CCOC(=O)c1c(N2CCOCC2)c2ccc(C)nc2n(CC)c1=O
173 to 176	CC(=O)OCCOCn1c(=O)sc2c(=O)[nH]c(N)nc21
180 to 184	C=C1CC(c2ccc(C)c(C)c2)N(C)C1=O (stereo unspecified)
> 270	Cn1ncc2c1CS(=O)(=O)c1cn[nH]c1-2
188 to 190	CON=C(C(N)=O)c1cnccn1
210	CCn1cc(C(=O)O)c(=O)c2cc(Cl)c(N(C)C)cc21
184 to 185	Cc1sc(C(N)=O)c2c1-c1c(cnn1C)CC2
173 to 174	CCCc1nsc(NC(=O)NC)c1C(=O)OCC
192 to 196	Cc1cc(-n2ccnc2)c2cccc(O)c2n1
73	CC(C#N)c1ccc(CCc2ccccc2C(=O)O)cc1 (stereo unspecified)
182 to 184	O=C1COC(Nc2ccccc2)=C1C(=O)Nc1ccccc1
148 to 149	Cc1oc(-c2ccccc2)nc1CCOc1ccc(Cn2cc(CC(=O)O)c(-c3ccccc3)n2)cn1
70 to 71	CCOC(=O)c1ccc(OCCCc2ccc(OC)c(OC)c2)cc1
88.5 to 90	C=CCOc1ccc(C(=O)C=Cc2cc(OC)cc(OC)c2)cc1
106 to 108	COc1ccc(CNc2nc(NC[C@@H](C)O)nc3c2ncn3C(C)C)c(O)c1
153 to 157	CS(=O)(=O)c1ccc(-n2ncc(C#N)c2-c2ccc(-c3ccco3)cc2)cc1F
162 to 164	CS(C)=NS(=O)(=O)c1ccc(N2CC(CO)OC2=O)cc1 (stereo unspecified)
168 to 171	O=C(OCc1ccccc1)N1C[C@@H]2CN(c3ccc(N4C[C@H](CO)OC4=O)cc3F)C[C@@H]2C1
190	CC(C)NC(=O)N1CCc2[nH]cnc2C1
124 to 126	Cc1cc(Br)ccc1C(=O)NCC(F)(F)F

melting point [°C]	Structure (SMILES)
106 to 108	COC(=O)c1cc(Br)c(O)c(C(C)=O)c1
68 to 69	COC(=O)c1ccc(Cl)nc1OC
86 to 89	CCOC(=O)Cc1c(-c2ccccc2)nn2cccnc12
161 to 162	CC(C)(C)OC(=O)N1CCC[C@H]1CNc1ccc2nccn2n1
217 to 218	NS(=O)(=O)c1ccc(CCNC(=O)c2nc(-c3ccccc3)no2)cc1
304 to 306	O=C1Nc2ccc(Cl)cc2C1c1ncnc2c1cnn2C1CCCC1 (stereo unspecified)
191 to 192	CC(=O)Nc1nc(C=O)c(Cc2ccccc2)s1
141	COc1cccc(CCN2C(=O)c3c(F)ccc(F)c3C2(O)c2ccccc2)c1 (stereo unspecified)
230 to 232	O=C(Nc1cnc2c(c1)CCN2)c1cc2cc(F)ccc2n1Cc1cccc(F)c1
159 to 160	CCCCCS(=O)(=O)NC(=O)c1ccc2sc(C)c(Cc3ccc(Cl)c(Cl)c3)c2c1
112	CCCC(=O)Nc1ccccc1Oc1cc(-c2ccc(C(F)(F)F)cc2)ncn1
140 to 142	CC(=O)n1ncc2c(O)cccc21
122 to 127	CC=CCn1c(C)c(C)c2cnnc(SCc3ccc(F)cc3F)c21
124 to 126	CC(C)CCCOc1ccc2[nH]ncc2c1
175 to 177	CNC(=O)Cc1cccc(NC(=O)NC)c1
176 to 179	NC(=O)Nc1ccc(C(O)(C(F)(F)F)C(F)(F)F)cc1
168	CC(C)CNC(=O)COc1ccn2nc(-c3ccccc3)c(-c3ccc(=O)n(C(C)C)n3)c2c1
65 to 67	Cc1cc(OS(=O)(=O)C(F)(F)F)cc(=O)n1C
132	Fc1ccc(-n2nnc3cccnc32)c(F)c1
122 to 124	CC(=O)Nc1ccc(-n2nc(C(=O)NC(C)(C)C)c3c2C2CCC3C2)cc1 (stereo unspecified)
110 to 113	CCN(CC)CCOc1c(-c2ccc(S(C)(=O)=O)cc2)cnn(-c2cccc(Cl)c2)c1=O
259 to 263	CCC(=O)c1cc(C#N)c(=O)[nH]c1C
172 to 180	CS(=O)(=O)c1nc(C(N)=O)n[nH]1
125 to 129	COC(=O)C(C(=O)OC)=C1SC=CS1

The next lines start with the molecule.

Structure (SMILES)	melting point [°C]
Cc1c(C(N)=O)oc2c(C(=O)NCCCN3CCN(c4cc(Cl)ccc4OS(=O)(=O)C(F)(F)F)CC3)cccc2c1=O	150 to 156
N#CC=C1CC2(CCCC2)c2ccccc21	82
COc1ccc2c(Cc3c(Cl)cncc3Cl)nnc(Cl)c2c1	156 to 166
CC(=NO)C(C)(C)NCC(CNC(C)(C)C(C)=NO)CC(O)CC1([N+](=O)[O-])N=CC=N1 (stereo unspecified)	185 to 187
C=C(C)C(=O)OCCCCCCOc1ccc(C(=O)Oc2ccc3ccc(=O)oc3c2)cc1	98 to 104
COc1ccc(C)cc1C(CCO)c1ccccc1 (stereo unspecified)	64
COc1cc2c3c(c1O)CN(C)CC3c1ccccc1CC2 (stereo unspecified)	173 to 174
O=C1c2cc(S(=O)(=O)N3CCOCC3)ccc2SC12CC2	162 to 165
Cc1nc(C)c(N2N=C(c3ccc([N+](=O)[O-])cc3)c3cc4c(cc3CC2C)OCO4)o1 (stereo unspecified)	76 to 78
CC(C)CCCC(C)C1CCC2C3CC=C4CC(OCC(=O)O)CCC4(C)C3CCC12C (stereo unspecified)	160
COc1ccc(Br)cc1N(C=NCl)C1CC1	185
COc1ccc(CNc2nc3ccccc3c3[nH]c(C4CCCC4)nc23)cc1	245 to 247
O=C(/C=C/[C@@H]1[C@H]2CC(=O)O[C@H]2C[C@H]1OC(=O)c1ccc(-c2ccccc2)cc1)CCc1ccccc1	129 to 130
Cc1oc(-c2ccccc2)nc1COc1ccc(O)cc1	168 to 169
Cc1nnc2n1-c1sc(CCc3ccc(O)cc3)cc1C(c1ccccc1Cl)=NC2	100
O=C1Oc2ccc3ccccc3c2CC1C(=O)c1cccc(C(F)(F)F)c1 (stereo unspecified)	192 to 193
Cc1c(Cc2cccc3ccccc23)c(=O)oc2cc(OCc3nnn[nH]3)cc(OCc3nnn[nH]3)c12	164 to 174
Cc1cc2c(cc1C(F)(F)F)N(c1ccc(C(=O)O)cc1)CCC[C@@H]2N(Cc1cc(C(F)(F)F)cc(C(F)(F)F)c1)c1nnn(C)n1	101 to 105
Cc1nnc(-c2ccc3occ(-c4ccc(OCS(C)(=O)=O)cc4)c3c2)o1	198 to 199
COc1cccc2c1cc(C(=O)NCCc1ccncc1)n2Cc1cccc(C(=N)NO)c1	220 to 222
COc1cc(C(F)(F)F)cc(OC)c1-c1ccc(C[C@H](NC(=O)c2c(Cl)cccc2Cl)C(=O)O)cc1	231 to 232
CN1C(=NCCCCn2ccnc2)c2cccc3cccc1c23	126 to 127
NC(=S)NN=C(CCCCl)c1ccccc1	128 to 130
CCCCCCC(C(=O)N1CCCC1CC(=O)O)n1cnc2cc(-c3ccccc3-c3nn[nH]n3)ccc21 (stereo unspecified)	122 to 125
CCC(CC)c1nc(-c2ccncc2)c(-c2ccc(Cl)cc2)n1C	100 to 102
C[C@@H]1S[C@@H](C(=O)Nc2ccc(CN3C(=O)CSC3=O)cc2)Cc2cc3c(cc2C1=O)OCO3	232 to 235

Structure (SMILES)	melting point [°C]
CCOC(=O)C(CCc1ccccc1)CC1(C(=O)O)CCCC1 (stereo unspecified)	68 to 69
CCCc1ncc(CN2CCN(c3ccccc3OC)CC2)c(N)n1	130
c1ccc(C2=c3cc4c(cc3Oc3ccccc32)=C(c2ccccc2)c2ccccc2O4)cc1	419
CCCCN(C=O)C1CC(C)(C)N(O)C(C)(C)C1	77 to 79
CSC1C(=O)Nc2cccc(-c3ccccc3)c21 (stereo unspecified)	182 to 185
Cc1c(NC(=O)CC(C)(C)C)cc2c(c1C)OC(C)(C)C2c1ccco1 (stereo unspecified)	126 to 127
COc1cc(OC)nc(OC(C(=O)O)C(OC)(c2ccccc2)c2ccccc2)n1 (stereo unspecified)	16 to 17
CC1CNC(CN(CC(=O)O)C(=O)c2ccccc2)c2ccccc21 (stereo unspecified)	157
Cc1oc(-c2ccccc2)nc1CCSc1ccc(OC(C)(C)C(=O)O)cc1	104 to 106
N#Cc1cccc(-c2cc(-c3ccc(C#N)cc3Cl)no2)c1	221 to 223
NCC1Cc2cc(-c3ccccc3)cc(-c3ccccc3F)c2O1 (stereo unspecified)	> 250
COc1ccc(Nc2nc(O)nc(NC3CCCCCC3)n2)cc1Cl	> 310
O=c1[nH]c2c(cc1-c1noc(C3CC3)n1)CN(Cc1ccccc1)CC2	187 to 190
CCCOc1ccc(-c2c(C)c(=O)cc(-c3ccccc3)n2-c2ccccc2)cc1	165 to 168
COc1ccc(CNc2c(NC(C)(C)C)c(=O)c2=O)c(OC)c1	225 to 226
COc1ccc(-c2ccnc(-c3ccccc3)c2)cc1F	84
Cc1ccc(C)c2c1CCC2=NNC(N)=Nc1c(Cl)cccc1Cl	> 275
CCOP(=O)(C/C=C\CC1(C(=O)NCC(F)(F)F)c2ccccc2-c2ccccc21)OCC	88 to 91
COC(=O)c1cccc(C(NCC(=O)Nc2c(C(C)C)cccc2C(C)C)c2ccccc2)c1 (stereo unspecified)	131 to 132
CON=C(C)c1cc(C[C@H](NC(=O)c2c(Cl)cccc2Cl)C(=O)O)ccc1-c1ccccc1OC	107
N#Cc1ccc(N2C(=O)C3C(O)CCCN3C2=O)c2ccccc12 (stereo unspecified)	243
CCCCC1(CCCC)CS(=O)(=O)c2ccc(N(C)C)cc2[C@@H](c2ccc(OCc3ccc(C(=O)O)cc3)cc2)[C@H]1O	156 to 159
CCOC(=O)COc1c(-c2ccccc2)cc(O)cc1-c1ccccc1	91 to 93
CC(C)(C)c1cc(-c2nc3ccc(O)cc3o2)ccc1O	220 to 222
CN(C)CC1CCN(c2nc(N3CCCCC3)c3ncnc(N(C)Cc4cccc5ccccc45)c3n2)CC1	150 to 151
COc1ccc2nc(-c3csc4ccccc34)[nH]c(=O)c2c1	289 to 290
